Series [1] is described as follows: Nanoparticle size, polydispersity index and surface potential by light scattering. It is filed as physicochemical. As to the method:
In general, the nanoparticles thus obtained have a mean size ranging from 30 to 650 nm, in particular from 30 to 500 nm and in particular from 50 to 250 nm, or even from 100 to 200 nm, measured by light scattering using a Coulter® N4MD nanosizer from Coulter Electronics, Hialeah, USA.
4 mg of squalenoylpaclitaxel are dissolved in […] of ethanol (2.5 mg/ml) and added dropwise with continuous stirring (speed of 500 rpm) to 1 ml of an aqueous solution containing 5% dextrose. The squalenoylpaclitaxel self-assembles in the form of nanoparticles with a size of between 100 and 200 nm. The ethanol is then completely evaporated off under reduced pressure using a Rotavapor® to obtain a nanoparticulate suspension of squalenoylpaclitaxel at a final concentration of 4 mg/ml.
Variable amounts (stated in Table 1 below) of squalenoylpaclitaxel are dissolved in 0.25 ml of tetrahydrofuran (THF). The solutions obtained are added dropwise with continuous stirring (speed of 500 rpm) to 0.25 ml of water. The squalenoylpaclitaxel precipitates in the form of nanoparticles between 100 and 200 nm in size. The THF is then completely evaporated off under reduced pressure using a Rotavapor® to obtain nanoparticulate squalenoylpaclitaxel suspensions whose size varies as a function of the concentration (see the table below).
100 μl of squalenoyldeoxyspergualine dissolved in ethanol (4 mg/ml) are added dropwise to 2 ml of distilled water with vigorous stirring. After evaporating off the ethanol under reduced pressure using a Rotavapor®, a suspension of nanoparticles 162 nm in size (polydispersity index 0.12 characterized by a surface potential of 27.38±2.60 mV) is obtained.
The mean size of the nanoparticles and the polydispersity index of the nanoparticles are determined at a temperature of 20° C. by light scattering with a zetasizer machine (Malvern Instruments, UK). The measurements are taken after diluting the nanoparticle suspension in MilliQ® water.

Series [2] relates to Madison's 109 (M109) murine pulmonary tumor cell line. As to the kind of experiment: In vitro anticancer activity, MTT test on M109 cells. The following applies: 72 hours, nanoparticles, read-out: 50% inhibitory concentration (IC50). It is filed as cell-based. As to the method:
(§1) The in vitro anticancer activity of the conjugates of squalenoyl/paclitaxel type in the form of nanoparticles is performed on Madison's 109 (M109) murine pulmonary tumor cell line. The M109 cells are cultured in RPMI 1640, supplemented with 10% fetal calf serum, 50 U·ml^−1 of penicillin and 50 μg·ml^−1 of streptomycin and 2 mM of L-glutamine. This analysis is performed using the 3-[4,5-dimethylthiazol-2-yl]-3,5-diphenyltetrazolium bromide (MTT) test, which measures the mitochondrial dehydrogenase activity. The cells in exponential growth phase are inoculated into a 96-well plate and preincubated for 24 hours at 37° C. in a humidified atmosphere with 5% CO2 in the air. Various dilutions of paclitaxel nanoparticles are added to the cells in the culture medium. Each dilution is tested three times. After 72 hours at 37° C., 200 μL of MTT solution in the cell culture medium (0.5 mg/ml) are added to each well. After incubating for 2 hours 30 minutes at 37° C., the culture medium is removed and the formazan crystals obtained are dissolved in 200 μL of an extraction solution (dimethyl sulfoxide). The absorbing power of the transformed dyestuff, which is proportional to the number of viable cells, is measured at 570 nm using a microplate reader (Metertech Σ 960, Fisher Bioblock, Illkirch, France). The percentage of surviving cells is calculated by determining the ratio of the absorbing power between the treated cells and the untreated cells.
Background: Tetrazolium assays rely on reduction of a dye to a coloured formazan, in cell work by metabolically active cells.

Series [3] deals with mice (C57BL6). It is filed as in vivo. The conditions noted are these: 4 mg/ml suspension i.v., 4×50 mg/kg (paclitaxel equivalent). As to the method:
The nanoparticulate squalenoylpaclitaxel suspension as prepared in Example 3 (4 mg/ml) is directly injected intravenously into mice (C57BL6) at a dose of 4×50 mg/kg (paclitaxel equivalent); the injections take place on days 0, 5, 9 and 14. […] The direct intravenous injection of the Taxol solution (without dilution in 0.9% NaCl) leads to the immediate death of 100% of the treated mice. When the Taxol solution is prediluted in 0.9% NaCl, the maximum dose that can be injected is 20 mg/kg.

The subject of series [4] is KB 3.1 cells. As to the kind of experiment: Tubulin immunofluorescence (spindle-poisoning activity) by confocal fluorescence microscopy. It is filed as cell-based, human. The following applies: nanoparticles 5 μM, 14-16 hours, FIG. 1B. The method, then:
The characterization of this activity is performed by immunofluorescence according to the following protocol:
Day 1: KB 3.1 cells originating from a human cervical carcinoma, and HT-29 cells corresponding to a human colon cancer cell line, are deposited on 6-well plates at a density of 20 000 cells/well (final volume 2 ml RPMI plus FCS). The cells are incubated at a temperature of 37° C. and at 5% CO2.
Day 2: The cells are rinsed and the squalenoylpaclitaxel nanoparticles (concentration 5 μM) as prepared according to the protocol described in Example 3 are added thereto.
Day 3: After 14-16 hours, rinsing is performed twice with PBS and the extraction solution (Triton X-100 plus 0.5% PEM-PIPES 100 mM, EGTA 2 mM, MgCl2 2 mM, pH 6.8) is then added. After 4 minutes, rinsing is performed, followed by addition of 2 ml of a 3% solution of formaldehyde in PEM. 40 minutes later, rinsing is performed and 20% FCS in PBS is added over 30 minutes. Murine anti-α-tubulin FITC monoclonal antibody (diluted to 1:200) is then added and the mixture is incubated for 1 hour. It is finally rinsed with PBS and an analysis by confocal fluorescence microscopy (Leica TCS SP2) is performed.

Series [5] concerns M109 subcutaneous tumoral model (murine pulmonary tumor). As to the kind of experiment: In vivo anticancer activity, M109 subcutaneous tumoral model. The following applies: 160 mg·kg^−1 i.v. for 5 consecutive days, CD2F1 mice, FIG. 2. The source says:
CD2F1 mice (4-5 weeks old) weighing about 15-18 g were used for this study. The mice are fed with standard mouse feed and water ad libitum. The M109 subcutaneous tumoral model (murine pulmonary tumor) is developed by injecting the M109 cells at exponential growth (1×10^6 cells) as a suspension, under the skin, into the lower portion of the abdomen of the mice. A palpable tumor (about 50-100 mm^3) is allowed to grow at the site of injection. The tumor-bearing mice are divided into 2 groups of 5-6, i.e. the untreated mice and the mice treated with squalenoyldiglycolyl-paclitaxel nanoparticles 160 mg·kg^−1 (injected intravenously for 5 consecutive days). The mice are controlled regularly to check the difference in the volume of the tumors, and thus to evaluate the anticancer efficacy.

The subject of series [6] is L1210 WT murine leukemia cell line. As to the kind of experiment: In vitro anticancer activity, MTT test on L1210 WT cells. It is filed as cell-based. The conditions noted are these: Mus musculus, 72 hours, nanoparticles, read-out: 50% inhibitory concentration (IC50). The method, then: as §1, with “After incubating for 2 hours 30 minutes at 37° C., the culture medium is removed and the formazan crystals obtained are dissolved in 200 μL of an extraction solution (dimethyl sulfoxide).” left out
The in vitro anticancer activity of the squalenoyldoxorubicin nanoparticles is evaluated on an L1210 WT murine leukemia cell line. […]

For series [7], the system named is L1210 aggressive metastatic leukemia model. As to the kind of experiment: In vivo anticancer activity, L1210 aggressive metastatic leukemia model. The conditions noted are these: 13 mg·kg^−1 i.v. on days 1, 7 and 14, DBA/2 mice. The source says: DBA/2 mice (4 to 5 weeks old) weighing about 15-18 g were used for this study. As for Example 17, the mice are fed with standard mouse feed and water ad libitum. The L1210 aggressive metastatic leukemia model (a murine leukemia) is developed by intravenously injecting the L1210 cells at exponential growth (0.1×10^6 cells) as a suspension, into the mice. The tumor-bearing mice are divided into 2 groups of 5-6, i.e. the untreated mice and the mice treated with squalenoyldoxorubicin nanoparticles (13 mg·kg^−1, injected intravenously on days 1, 7 and 14, after injection of the tumor cells). After treatment, the mice are controlled regularly to check the differences in weight and the survival rate, these parameters making it possible to evaluate the efficacy of the anticancer activity.

Where [8] appears, read: Example 9: 100 μl of 4 mg/ml ethanol solution added to 2 ml distilled water.
Where [9] appears, read: 20° C., zetasizer, diluted in MilliQ water, compositions of Example 15.

For the compound `CC(C)=CCC/C(C)=C/CC/C(C)=C/CC/C=C(\C)CC/C=C(\C)CCC(=O)NCCCNCCCCNC(=O)C(O)NC(=O)CCCCCCNC(=N)N` (stereo not drawn) [squalenoyldeoxyspergualine], in series [1] (setting [8]), the Polydispersity index turned out to be 0.12, the Size of nanoparticles turned out to be 162 nm and the Surface potential was 27.38±2.60 mV.
In series [1] (setting [9]), “squalenoylsuccinylpaclitaxel [Example 10]” gave a Mean particle diameter of 250.9 nm and a Polydispersity index of 0.061. For the same compound, the IC50 in series [2] is 72 nM.
For monosqualenoylpaclitaxel, the Polydispersity index in series [1] (0.36 mmol squalenoylpaclitaxel in 0.25 ml THF added to 0.25 ml water) came out at 0.39; in series [1] (0.88 mmol squalenoylpaclitaxel in 0.25 ml THF added to 0.25 ml water) it was 0.30; in series [1] (1.76 mmol squalenoylpaclitaxel in 0.25 ml THF added to 0.25 ml water) it was 0.31. Also, the figures for the Diameter in series [1] (0.36 squalenoylpaclitaxel in 0.25 ml THF added to 0.25 ml water), in series [1] (0.88 squalenoylpaclitaxel in 0.25 ml THF added to 0.25 ml water) and in series [1] (1.76 squalenoylpaclitaxel in 0.25 ml THF added to 0.25 ml water) were 151 ± 84 nm, 169 ± 92 nm and 177 ± 99 nm, respectively. In addition, the Signs of toxicity entry in series [3] (days 0, 5, 9 and 14, C57BL6 mice) is reported as “do not show any sign of toxicity”. In series [3] (days 0, 5, 9 and 14, period of at least one month), the Mortality result was “No mortality is recorded”. Besides, in series [4], the “Formation of tubulin lumps (spindle-poisoning activity)” value was “formation of tubulin lumps is clearly visible”.
For “Squalenoyldiglycolyl-paclitaxel [Example 11]”, in series [1] (setting [9]), the Mean particle diameter is listed as 150.0 nm and the Polydispersity index stood at 0.075. Besides, the IC50 in series [2] is 175 nM. The “Anticancer activity: progression of tumor volume” value in series [5] was “show anticancer activity by controlling the progression of the M109 tumors”.
In the case of squalenoylC22-paclitaxel [Example 13], in series [1] (setting [9]), the Mean particle diameter came to 239.3 nm and the Polydispersity index is listed as 0.077. Moreover, the IC50 in series [2] stood at 7300 nM.
The matching figures for “Squalenoylsuccinyl-PEG340-paclitaxel [Example 12]”: 643.9 nm, 0.081 and 490 nM.
In series [1] (setting [9]), `COc1cccc2c1C(=O)c1c(O)c3c(c(O)c1C2=O)CC(O)(C(=O)COC(=O)CC/C(C)=C/CC/C(C)=C/CC/C=C(\C)CC/C=C(\C)CCC=C(C)C)CC3OC1CC(N)C(O)C(C)O1` (stereo not drawn) [Example 14, 14-squalenoyldoxorubicin] registered a Mean particle diameter of 138.2 nm and a Polydispersity index of 0.325. In series [6], the IC50 worked out at 291 nM. Further, in series [7] (FIG. 3), the “Anticancer activity (variations in weight of mice)” value was “demonstrate effective anticancer activity”. Moreover, the Survival rate entry in series [7] (FIG. 4) is “improved survival rate”.

(Values after patent US8962552B2, “Nanoparticles of therapeutic agents having low water solubility” (Centre Nationale de Recherche Scientifique, priority 2007, dated 2015).)
